# From US20220296722A1, “CONJUGATES AND CONJUGATES FOR USE IN PREVENTING OR TREATING OF BRAIN DAMAGE AND NEURODEGENERATIVE DISEASES” (MEDICORTEX FINLAND OY, priority 2019, published 2022)
# Tests used:
# [1] = Modified Irwin procedure: overt behavioural and physiological parameters after a single intraperitoneal dose; assay type: in vivo, Male CD-1 (ICR) mice; conditions: for behavioural or physiological changes (modified Irwin): single dose, 3 mice, assessed 0.25-24 h
# Protocol: (§1) MCF-013 was formulated as a clear solution by dissolving in 10% final volume ethanol and then making up to full volume with saline at concentrations of 0.1, 0.3, 1 and 4 mg provided material/mL. This provided doses of 1, 3, 10 and 40 mg provided material/kg when administered intraperitoneally in 10 ml/kg dosing volumes.
# (§2) Male CD-1 (ICR) mice were acclimatised to the procedure room. Groups of 3 mice were administered with vehicle (ethanol:saline) [10:90], or MCF-013 at 1, 3, 10 or 40 mg/kg intraperitoneally in 10 mL/kg dosing volumes. Doses were administered in an escalating dose order. […] These tissues were then excised and weighed and any with overt macroscopic abnormalities were to be placed in 10 volumes neutral buffered formalin solution (Sigma Cat no: HT501128).
# [2] = Gross macroscopic examination and weighing of major organs at 24 h after dosing; assay type: in vivo, Male CD-1 (ICR) mice
# Protocol: as §1, §2
smiles,measurement,setting,value
"O=C(Nc1ccccc1OCCOc1ccc(O)c(O)c1OC[C@H]1O[C@@H](O)[C@H](O)[C@@H](O)[C@@H]1O)c1cccc(O)c1O [MCF-013, N-{o-[2-(2-{[(2R,3S,4S,5R,6R)-3,4,5,6-Tetrahydroxytetrahydro-2Hpyran-2-yl]methoxy}-3,4-dihydroxyphenoxy)ethoxy]phenyl}2,3-dihydroxybenzamide]",behavioural or physiological changes (modified Irwin),[1]; 1 mg/kg intraperitoneally,"One of three mice (No. 6) showed slight hunched posture at 0.5 and 1h, and slight piloerection 0.5 h after dosing"
same,behavioural or physiological changes (modified Irwin),[1]; 3 mg/kg intraperitoneally,One of three animals (mouse 9) showed slight hunched posture at 0.25 h after dosing
same,behavioural or physiological changes (modified Irwin),[1]; 10 mg/kg intraperitoneally,no behavioural or physiological changes were noted
same,behavioural or physiological changes (modified Irwin),[1]; 40 mg/kg intraperitoneally,no behavioural or physiological changes were noted
same,tolerability over a 24 h period,"[1]; 1, 3, 10 and 40 mg provided material/kg intraperitoneally, mice, compared with ethanol:saline [10:90] vehicle",well tolerated
same,gross macroscopic examination of the major organs,[2]; 1 mg/kg intraperitoneally,caecum of mouse 6 was noted to be slightly distended with air
same,organ weights,[2]; 1 mg/kg intraperitoneally,normal
same,gross macroscopic examination of the major organs,[2]; 3 mg/kg intraperitoneally,no abnormalities
same,organ weights,[2]; 3 mg/kg intraperitoneally,normal
same,gross macroscopic examination of the major organs,[2]; 10 mg/kg intraperitoneally,no abnormalities
same,organ weights,[2]; 10 mg/kg intraperitoneally,normal
same,gross macroscopic examination of the major organs,[2]; 40 mg/kg intraperitoneally,no abnormalities
same,organ weights,[2]; 40 mg/kg intraperitoneally,normal
